Reference: US10561666B2, “Amido compounds as RORγt modulators and uses thereof” (New York University, priority 2010, dated 2020)

Molecular target: RORγt (Mus musculus, UniProt P51450, T352K)
Assay: RORγt S2 cell Gal4-luciferase reporter assay
Details: for Emax: read-out: Efficacy (%)
[1] = IC50(μM), Drosophila S2 cells, Gal4-RORγt luciferase reporter, 20 hr
[2] = S2 cell RORg IC50 μM, S2 cell reporter assay, listed for comparison

Sequence of RORγt (P51450 with tags, fused parts or gaps T352K): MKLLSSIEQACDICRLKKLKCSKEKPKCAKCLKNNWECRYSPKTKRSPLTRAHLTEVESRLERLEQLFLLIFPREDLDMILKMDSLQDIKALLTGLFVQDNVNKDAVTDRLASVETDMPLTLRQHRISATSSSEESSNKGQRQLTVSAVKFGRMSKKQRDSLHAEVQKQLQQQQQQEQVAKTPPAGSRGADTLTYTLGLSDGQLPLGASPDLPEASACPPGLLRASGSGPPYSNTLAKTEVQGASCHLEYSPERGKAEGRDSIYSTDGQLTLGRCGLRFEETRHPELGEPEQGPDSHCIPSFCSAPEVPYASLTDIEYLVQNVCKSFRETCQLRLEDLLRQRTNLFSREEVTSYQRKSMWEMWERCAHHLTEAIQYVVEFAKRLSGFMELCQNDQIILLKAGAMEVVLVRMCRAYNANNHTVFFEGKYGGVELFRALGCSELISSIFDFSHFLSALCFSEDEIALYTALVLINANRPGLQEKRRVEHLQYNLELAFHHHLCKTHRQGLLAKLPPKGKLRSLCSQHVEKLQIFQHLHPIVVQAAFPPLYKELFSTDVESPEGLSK
Source text: Methods: The Drosophila S2 cell line was originally purchased from Invitrogen and was maintained in Schneider's medium supplemented with 10% heat-inactivated bovine fetal calf serum and antibiotics (Invitrogen). […] The resulting chimeric gene was subcloned into the copper inducible pMT/V5-His A vector (available from Invitrogen).
In order to generate stable cell lines, cells were co-transfected with pMT-G4DBD-RORγt, pMT-G4DBD-RORα, pMT-G4DBD-DHR3, or pMT-G4DBDVP16 and pHygro plasmids (Invitrogen) and screened for resistant colonies in the presence of hygromycin (0.3 mg/mL).
Methods: 600 G4DBD-RORγ/γt-luc reporter (#25) or G4DBD-VP16-luc reporter cells were distributed into each well of 1,536-well white bottom plates in 4 μl S2 cell culture volume containing hygromicin (300 μg/ml) and puromycin (2 μg/ml). […] After one-hour incubation, 1 μl of culture medium solution containing copper sulfate (to final 0.7 mM) and 10 μM RORγ/γt antagonists were added to each well. After 20-hour incubation at ambient temperature, 1.5 μl firefly luciferase detection mix was added and the luciferase activities were measured in 10 min. ViewLux luminometers were used for measuring luciferase signal.
Since their cognate DNA binding sites were not well characterized, the DNA binding domains (DBD) of RORγ/γt, RORα (mouse homolog for POPγ), and DHR3 (Drosophila orthologue for ROR family proteins) were replaced with the heterologous yeast GAL4 DBD. The transcriptionally active domain of general transcriptional activator VP16 was also fused with GAL4 DBD. The GAL4 fusion constructs were placed under the control of a copper inducible promoter, and stable S2 cell lines with genomic integration of these four reporter constructs were generated. The copper inducible promoter ensures tight regulation of GAL4-fusion protein expression and it allows small molecules to get into the cells prior to protein induction, thus increasing their effects on GAL4 reporters. The stable reporter cell lines also encode the firefly luciferase reporter, whose expression is regulated by five copies of the GAL4 binding site enhancer (UAS), along with the pol III-driven Renilla luciferase reporter.
A cell-based reporter assay was used to detect RORγt-mediated activity. This assay, called RORγt□ employed Drosophila Schneider cells that were stably transfected with two vectors: a gene expressing a fusion of the Gal4 DNA binding domain and RORγt transactivation domain under the control of the metallothionine promoter and a Photinus luciferase reporter regulated by the Gal4 binding site enhancer, UAS. […] Cells (600/well) were dispensed into white solid 1536-well plates (Greiner) using a solenoid-based dispenser. Following transfer of 23 nL compound or DMSO vehicle by a pin tool, the plates were incubated 1 hr at ambient temperature, and 1 uL/well copper sulfate (700 uM final concentration) was added. The plates were centrifuged 15 s at 1000 RPM and incubated 20 hr at ambient temperature. After addition of 1.5 uL Photinus luciferase detection reagent, the plates were incubated 10 min at ambient temperature and then read by a ViewLux (Perkin Elmer) to detect luminescence. […] Efficacy is expressed as % of the maximal response of control inhibitor (Digoxin), set at 100%.

Compound | IC50 [1] | Emax | further results
CC1CCCN(C(=O)CC(c2ccc3c(c2)OCO3)c2ccc(I)cc2O)C1 (stereo not shown) [Compound 131] | 11 to 50 µM | 33.2% | 
COc1cc(O)c(C(CC(=O)N2CC(C)CC(C)C2)c2ccc(C(C)=O)cc2)c(OC)c1 (stereo not shown) [Compound 100, 3-(4-Acetylphenyl)-1-(3,5-dimethylpiperidin-1-yl)-3-(2-hydroxy-4,6-dimethoxyphenyl)propan-1-one] | < 1 µM |  | 
COc1cc(O)c(C(CC(=O)N2CCC(c3ccccc3)CC2)c2ccc(OC)c(OC)c2)c(OC)c1 (stereo not shown) [Compound 45] | > 50 µM |  | 
COc1ccc(C(CC(=O)N2CCCC(C)C2)c2ccccc2)cc1 (stereo not shown) [Compound 51] | > 50 µM |  | 
CC1CCCN(C(=O)CC(c2ccc3c(c2)OCO3)c2c(O)ccc3ccccc23)C1 (stereo not shown) [Compound 118] | 1 to 10 µM | 94.9% | IC50 [2]: 1 to 10 µM
COc1ccc2ccccc2c1C(c1ccc(F)cc1)C(C)(C)C(=O)N1CC(C)CC(C)C1 (stereo not shown) [Compound 157] | 1 to 10 µM | 94.4% | 
COc1cc(O)c(C(CC(=O)N2CCCC(C)C2)c2ccc3c(c2)OCO3)c(OC)c1 (stereo not shown) [Compound 3] | 1 to 10 µM | 98.8% | 
CC1CCCN(C(=O)CC(c2ccccc2)c2ccccc2O)C1 (stereo not shown) [Compound 54] | > 50 µM |  | 
COc1cc(O)c(C(CC(=O)N2CCCC(C)C2)c2ccc(-c3ccccc3)cc2)c(OC)c1 (stereo not shown) [Compound 67] | 11 to 50 µM | 72% | IC50 [2]: 11 to 20 µM
COc1cc(O)c(C(CC(=O)N2CC(C)CC(C)C2)c2cccc(OC(F)(F)F)c2)c(OC)c1 (stereo not shown) [Compound 93, 1-(3,5-Dimethylpiperidin-1-yl)-3-(2-hydroxy-4,6-dimethoxyphenyl)-3-(3-(trifluoromethoxy)phenyl)propan-1-one] | 1 to 10 µM | 93.3% | 
Cc1ccc(C)c(C(CC(=O)N2CCCC(C)C2)c2ccc3c(c2)OCO3)c1O (stereo not shown) [Compound 113] | 11 to 50 µM | 81.5% | 
CCOc1ccc(O)c(C(CC(=O)N2CCCC(C)C2)c2ccc3c(c2)OCO3)c1 (stereo not shown) [Compound 119] | 11 to 50 µM | 94.3% | IC50 [2]: 11 to 20 µM
COc1cc(O)c(C(CC(=O)N2CCN(c3ccc(F)cc3)CC2)c2ccc3c(c2)OCO3)c(OC)c1 (stereo not shown) [Compound 40] | > 50 µM |  | 
COc1cc(O)c(C(CC(=O)N2CCCC(C)C2)c2cccc3ccccc23)c(OC)c1 (stereo not shown) [Compound 66] | 11 to 50 µM | 52% | IC50 [2]: 11 to 20 µM
COc1cc(O)c(C(CC(=O)N2CCOCC2)c2ccc3c(c2)OCO3)c(OC)c1 (stereo not shown) [Compound 4] | 11 to 50 µM | 20.2% | 
COc1cc(OC)c(C(CC(=O)N2CCCC(C)C2)c2ccc3c(c2)OCO3)c(OCc2ccccc2)c1 (stereo not shown) [Compound 124] | 1 to 10 µM | 94.1% | IC50 [2]: 1 to 10 µM

Compound | IC50 [1] | Emax | further results
COc1cc(O)c(CCC(=O)N2CCCC(C)C2)c(OC)c1 (stereo not shown) [Compound 71] | > 50 µM |  | 
COc1cc(O)c(C(CC(=O)NCc2ccccc2)c2ccc3c(c2)OCO3)c(OC)c1 (stereo not shown) [Compound 21] | > 50 µM |  | 
CC1CC(C)CN(C(=O)CC(c2ccc(-n3cncn3)cc2)c2ccc3c(c2)OCO3)C1 (stereo not shown) [Compound 141, 3-(4-(1H-1,2,4-Triazol-1-yl)phenyl)-3-(benzo[d][1,3]dioxol-5-yl)-1-(3,5-dimethylpiperidin-1-yl)propan-1-one] | 11 to 50 µM | 106% | 
COc1cc(O)c(C(CC(=O)N2CC(C)CC(C)C2)c2ccc(Cl)c(Cl)c2)c(OC)c1 (stereo not shown) [Compound 88, 3-(3,4-Dichlorophenyl)-1-(3,5-dimethylpiperidin-1-yl)-3-(2-hydroxy-4,6-dimethoxyphenyl)propan-1-one] | 1 to 10 µM | 97.2% | 
1-(3,5-Dimethylpiperidin-1-yl)-3-(2-hydroxy-4,6-dimethoxyphenyl)-3-(3-(methylsulfonyl)phenyl)propan-1-one [Compound 83] |  |  | Efficacy (%) (% of the maximal response of control inhibitor (Digoxin), set at 100%): −93.79%; IC50 (Drosophila S2 cells, Gal4-RORγt luciferase reporter, 20 hr): 1 to 10 µM
COc1cc(O)c(C(CC(=O)N2CCCC(C)C2)c2ccc(C(C)C)cc2)c(OC)c1 (stereo not shown) [Compound 64] | 1 to 10 µM | 99.3% | IC50 [2]: 1 to 10 µM
COc1cc(O)c([C@H](CC(=O)N2CC(C)CC(C)C2)c2ccc3c(c2)OCO3)c(OC)c1 (stereo partly shown) [Compound 36] |  | 91% | 
COc1cc(OC)c(C(c2ccccc2)C(C)(C)C(=O)NC2CC(C)(C)CC(C)(C)C2)c(OC)c1 (stereo not shown) [Compound 154] | > 50 µM |  | 
COc1cc(O)c(C(CC(=O)NCC2CCCCC2)c2ccc3c(c2)OCO3)c(OC)c1 (stereo not shown) [Compound 24] | > 50 µM |  | 
COc1cc(O)c(C(CC(=O)N2CC(C)CC(C)C2)c2ccccc2Cl)c(OC)c1 (stereo not shown) [Compound 103] | 1 to 10 µM | 95.8% | 
COc1cc(O)c(C(CC(=O)N2CC(C)CC(C)C2)c2ccc(SC)cc2)c(OC)c1 (stereo not shown) [Compound 105, 1-(3,5-Dimethylpiperidin-1-yl)-3-(2-hydroxy-4,6-dimethoxyphenyl)-3-(4-(methylthio)phenyl)propan-1-one] | < 1 µM | 94.7% | 
COc1cc(O)c(C(CC(=O)N2CC(C)CC(C)C2)c2cccc(OCc3ccccc3)c2)c(OC)c1 (stereo not shown) [Compound 91] | 1 to 10 µM | 92.6% | 
COc1cc(O)c(C(CC(=O)N2CCCC(CO)C2)c2ccc3c(c2)OCO3)c(OC)c1 (stereo not shown) [Compound 20] | 11 to 50 µM | 44.7% | 
COc1cc(O)c(C(CC(=O)NC2CCC(C)CC2)c2ccc3c(c2)OCO3)c(OC)c1 (stereo not shown) [Compound 23] | 11 to 50 µM | 76.8% | 
COc1cc(O)c(C(CC(=O)N2CC(C)CC(C)C2)c2ccc(C(N)=O)cc2)c(OC)c1 (stereo not shown) [Compound 111] | 1 to 10 µM |  | 
COc1cc(O)c(C(CC(=O)NC2CCCc3ccccc32)c2ccc3c(c2)OCO3)c(OC)c1 (stereo not shown) [Compound 26] | > 50 µM |  | 

Second part, led by results:

IC50 [1] | Emax | Compound | further results
11 to 50 µM | 48.2% | Cc1cc(C)c(O)c(C(CC(=O)N2CCCC(C)C2)c2ccc3c(c2)OCO3)c1 (stereo not shown) [Compound 116] | 
> 50 µM |  | Cc1ccc(O)c(C(CC(=O)NC2CCCCC2)c2ccccc2)c1 (stereo not shown) [Compound 47] | 
> 50 µM |  | CC1CCCN(C(=O)CC(c2ccc3c(c2)OCO3)c2ccc3ccccc3c2O)C1 (stereo not shown) [Compound 68] | 
1 to 10 µM | 90.5% | COc1cc(O)c(C(CC(=O)N2CC(C)CC(C)C2)c2cccc(OC(C)C)c2)c(OC)c1 (stereo not shown) [Compound 94, 1-(3,5-Dimethylpiperidin-1-yl)-3-(2-hydroxy-4,6-dimethoxyphenyl)-3-(3-isopropoxyphenyl)propan-1-one] | 
> 50 µM |  | COc1cc(O)c(C(CC(=O)N2CCc3ccccc32)c2ccc3c(c2)OCO3)c(OC)c1 (stereo not shown) [Compound 32] | 
1 to 10 µM |  | COc1cc(O)c(C(CC(=O)N2CC(C)CC(C)C2)c2cccc(C(=O)O)c2)c(OC)c1 (stereo not shown) [Compound 101, 3-(3-(3,5-Dimethylpiperidin-1-yl)-1-(2-hydroxy-4,6-dimethoxyphenyl)-3-oxopropyl)benzoic acid] | 
1 to 10 µM | 93.8% | COc1cc(OC)c(C(c2ccccc2)C(C)(C)C(=O)N2CC(C)CC(C)C2)c(OC)c1 (stereo not shown) [Compound 149, 1-(3,5-Dimethylpiperidin-1-yl)-2,2-dimethyl-3-phenyl-3-(2,4,6-trimethoxyphenyl)propan-1-one] | IC50 [2]: 1 to 10 µM
11 to 50 µM | 86.4% | CC1CC(C)CN(C(=O)CC(c2ccc3c(c2)OCO3)c2cccc(F)c2O)C1 (stereo not shown) [Compound 143] | 
> 50 µM |  | CC1CCCN(C(=O)CC(c2ccc3c(c2)OCO3)c2ccc(O)cc2O)C1 (stereo not shown) [Compound 122] | 
1 to 10 µM | 97.3% | COc1cc(O)c(C(CC(=O)N2CC(C)CC(C)C2)c2ccc3c(c2)OC(F)(F)O3)c(OC)c1 (stereo not shown) [Compound 104] | 
11 to 50 µM | 27.1% | CC1CCCN(C(=O)CC(c2ccc3c(c2)OCO3)c2c(O)cccc2Cl)C1 (stereo not shown) [Compound 127] | 
> 50 µM |  | COc1cc(O)c(C(CC(=O)N[C@H](C)c2ccccc2)c2ccc3c(c2)OCO3)c(OC)c1 (stereo partly shown) [Compound 34] | 
> 50 µM |  | COc1ccccc1C(CC(=O)N1CCCC(C)C1)c1ccccc1 (stereo not shown) [Compound 52] | 
11 to 50 µM | 47.5% | COc1cc(O)c(C(CC(=O)N2CCCC(COc3ccc(F)cc3)C2)c2ccc3c(c2)OCO3)c(OC)c1 (stereo not shown) [Compound 19] | 
1 to 10 µM | 99.1% | COc1cc(O)c(C(CC(=O)N2CC(C)CC(C)C2)c2ccc(CN3CCOCC3)cc2)c(OC)c1 (stereo not shown) [Compound 90] | 
1 to 10 µM | 103% | COc1cc(O)c(C(CC(=O)N2CC(C)CC(C)C2)c2cccc(Br)c2)c(OC)c1 (stereo not shown) [Compound 85, 3-(3-Bromophenyl)-1-(3,5-dimethylpiperidin-1-yl)-3-(2-hydroxy-4,6-dimethoxyphenyl)propan-1-one] | 
> 50 µM |  | COc1ccccc1C(CC(=O)Nc1ccc(F)cc1)c1ccccc1 (stereo not shown) [Compound 50] | 
< 1 µM | 96.6% | COc1cc(O)c(C(CC(=O)N2CC(C)CC(C)C2)c2cccc(C#N)c2)c(OC)c1 (stereo not shown) [Compound 87, 3-(3-(3,5-Dimethylpiperidin-1-yl)-1-(2-hydroxy-4,6-dimethoxyphenyl)-3-oxopropyl)benzonitrile] | 
1 to 10 µM | 97.3% | COc1cc(O)c(C(CC(=O)N2CC(C)CC(C)C2)c2cc(F)c(F)c(F)c2)c(OC)c1 (stereo not shown) [Compound 109, 1-(3,5-Dimethylpiperidin-1-yl)-3-(2-hydroxy-4,6-dimethoxyphenyl)-3-(3,4,5-trifluorophenyl)propan-1-one] | 
> 50 µM |  | COc1cc(O)c(C(CC(=O)N2CCCC(C(=O)N3CCCCC3)C2)c2ccc3c(c2)OCO3)c(OC)c1 (stereo not shown) [Compound 17] | 
1 to 10 µM | 94.1% | CC1CC(C)CN(C(=O)CC(c2ccc3c(c2)OCO3)c2c(O)ccc3cccnc23)C1 (stereo not shown) [Compound 146] | 
11 to 50 µM | 80.7% | COc1cc(O)c(C(CC(=O)N2CCc3ccccc3C2)c2ccc3c(c2)OCO3)c(OC)c1 (stereo not shown) [Compound 27] | 
> 50 µM |  | COc1cc(O)c(C(CC(=O)N(Cc2ccccc2)Cc2ccccc2)c2ccc3c(c2)OCO3)c(OC)c1 (stereo not shown) [Compound 33] | 
1 to 10 µM | 30.4% | CC1CCCN(C(=O)CC(c2ccc3c(c2)OCO3)c2ccc(F)cc2O)C1 (stereo not shown) [Compound 132] | 
